Results taken from patent publication US11472799B2, “Serine threonine kinase (AKT) degradation / disruption compounds and methods of use” (Icahn School of Medicine at Mount Sinai, priority 2018, dated 2022).

System: AKT
Experiment: Western blot of AKT protein levels and downstream signaling in BT474 cells
Format: cell-based, human
Conditions: Western blot (FIGS. 1, 3, 4)
Protocol: PC-3, U87MG, HCC1143, MDA-MB-231, MDA-MB-468, BT474 and MCF-7 cell lines were purchased from ATCC. Cell lines were regularly tested in the lab for mycoplasma. All cells were cultured at 37° C. and 5% CO2. PC-3, U87MG, MDA-MB-231, MCF-7 and BT474 cells were cultured in 1×DMEM (Corning, 10-013-CV) with 10% fetal bovine serum (Atlanta Biologicals S11150) and 1× Penicillin/Streptomycin. HCC1143 cells were cultured in RPMI (Corning, 10-040-CV) medium with 10% fetal bovine serum (Atlanta Biologicals S11150) and 1× Penicillin/Streptomycin. Cells were split using 0.05% or 0.25% trypsin (Corning 25-051-Cl or 25-053-Cl, respectively) before they reached full confluence and media was changed every 3-4 days. Cells were treated with compounds individually at different concentrations for 24 hrs. Cells were treated with DMSO, VHL, or PML alone as controls.
Cells were lysed in 2× sample buffer (125 mM Tris-HCl at pH 6.8, 10% βME, 2% SDS, 20% glycerol, 0.05% Bromophenol Blue, 8 M urea). Protein lysates were loaded into 4-12% Bis-Tris gels and resolved by electrophoresis. Samples were then blotted on PVDF membrane (Millipore IPVH00010) using the wet transfer technique (Invitrogen). Membranes were blocked in 5% milk-TBST for 1 hour, washed in TBST for 10 min, and incubated in primary antibody in 5% milk-TBST or 5% BSA-TBST at 4° C. for 16 h. Membranes were rinsed (3×6 min) in TBST and incubated in horseradish peroxidase-conjugated secondary antibodies in 5% milk-TBST for 1 hour and rinsed again in TBST (3×6 min). Membranes were visualized using the chemiluminescence system (Thermo 34080, 37075) on autoradiography film (Denville E3018). Primary Antibodies: R-actin (Sigma A5316), p-AKT (Ser473 CST-9721), total AKT (CST-9272), p-S6 (Ser240/244, CST-5364), p-PRAS40 (Thr246, CST-2997). Secondary Antibodies: Mouse (Thermo 31432), Rabbit (Thermo 31460).

| Compound | suppression of AKT protein level and AKT activity |
| --- | --- |
| C[C@@H]1C[C@@H](O)c2ncnc(N3CCN(C(=O)[C@H](CNCCC(=O)NCCOCCOCCNc4cccc5c4C(=O)N(C4CCC(=O)NC4=O)C5=O)c4ccc(Cl)cc4)CC3)c21 (stereo partly drawn) [XF048-7, 3-(((S)-2-(4-chlorophenyl)-3-(4-((5R,7R)-7-hydroxy-5-methyl-6,7-dihydro-5H-cyclopenta[d]pyrimidin-4-yl)piperazin-1-yl)-3-oxopropyl)amino)-N-(2-(2-(2-((2-(2,6-dioxopiperidin-3-yl)-1,3-dioxoisoindolin-4-yl)amino)ethoxy)ethoxy)ethyl) propanamide] | effective in suppressing both AKT protein level and AKT activity |
| C[C@@H]1C[C@@H](O)c2ncnc(N3CCN(C(=O)[C@H](CNCCC(=O)NCCCCCCNc4cccc5c4C(=O)N(C4CCC(=O)NC4=O)C5=O)c4ccc(Cl)cc4)CC3)c21 (stereo partly drawn) [XF042-168, 3-(((S)-2-(4-chlorophenyl)-3-(4-((5R,7R)-7-hydroxy-5-methyl-6,7-dihydro-5H-cyclopenta[d]pyrimidin-4-yl)piperazin-1-yl)-3-oxopropyl)amino)-N-(6-((2-(2,6-dioxopiperidin-3-yl)-1,3-dioxoisoindolin-4-yl)amino)hexyl)propanamide] | effective in suppressing both AKT protein level and AKT activity |
| C[C@@H]1C[C@@H](O)c2ncnc(N3CCN(C(=O)[C@H](CNCCC(=O)NCCCCCCCCOc4cccc5c4C(=O)N(C4CCC(=O)NC4=O)C5=O)c4ccc(Cl)cc4)CC3)c21 (stereo partly drawn) [XF050-133, 3-(((S)-2-(4-chlorophenyl)-3-(4-((5R,7R)-7-hydroxy-5-methyl-6,7-dihydro-5H-cyclopenta[d]pyrimidin-4-yl)piperazin-1-yl)-3-oxopropyl)amino)-N-(8-((2-(2,6-dioxopiperidin-3-yl)-1,3-dioxoisoindolin-4-yl)oxy)octyl)propanamide] | effective in suppressing both AKT protein level and AKT activity |
| C[C@@H]1C[C@@H](O)c2ncnc(N3CCN(C(=O)[C@H](CNCCC(=O)NCCOCCOCCOCCOCCOCCNc4cccc5c4C(=O)N(C4CCC(=O)NC4=O)C5=O)c4ccc(Cl)cc4)CC3)c21 (stereo partly drawn) [XF038-177A, 3-(((S)-2-(4-chlorophenyl)-3-(4-((5R,7R)-7-hydroxy-5-methyl-6,7-dihydro-5H-cyclopenta[d]pyrimidin-4-yl)piperazin-1-yl)-3-oxopropyl)amino)-N-(17-((2-(2,6-dioxopiperidin-3-yl)-1,3-dioxoisoindolin-4-yl)amino)-3,6,9,12,15-pentaoxaheptadecyl) propanamide] | effective in suppressing both AKT protein level and AKT activity |
| NC1(C(=O)N[C@@H](CCN2CCN(C(=O)CCOCCOCCOCCOCCOCCOCCOCCOCCOCCNc3cccc4c3C(=O)N(C3CCC(=O)NC3=O)C4=O)CC2)c2ccc(Cl)cc2)CCN(c2ncnc3[nH]ccc23)CC1 (stereo partly drawn) [XF056-35, 4-amino-N-((1S)-1-(4-chlorophenyl)-3-(4-(1-((2-(2,6-dioxopiperidin-3-yl)-1,3-dioxoisoindolin-4-yl)amino)-3,6,9,12,15,18,21,24,27-nonaoxatriacontan-30-oyl)piperazin-1-yl)propyl)-1-(7H-pyrrolo[2,3-d]pyrimidin-4-yl)piperidine-4-carboxamide] | effective in suppressing both AKT protein level and AKT activity |
| C[C@@H]1C[C@@H](O)c2ncnc(N3CCN(C(=O)[C@H](CNCCNC(=O)CCOCCOCCOCCOCCNc4cccc5c4C(=O)N(C4CCC(=O)NC4=O)C5=O)c4ccc(Cl)cc4)CC3)c21 (stereo partly drawn) [XF048-3, N-(2-(((S)-2-(4-chlorophenyl)-3-(4-((5R,7R)-7-hydroxy-5-methyl-6,7-dihydro-5H-cyclopenta[d]pyrimidin-4-yl)piperazin-1-yl)-3-oxopropyl)amino)ethyl)-1-((2-(2,6-dioxopiperidin-3-yl)-1,3-dioxoisoindolin-4-yl)amino)-3,6,9,12-tetraoxapentadecan-15-amide] | effective in suppressing both AKT protein level and AKT activity |
| NC1(C(=O)N[C@@H](CCN2CCN(C(=O)CCOCCOCCNc3cccc4c3C(=O)N(C3CCC(=O)NC3=O)C4=O)CC2)c2ccc(Cl)cc2)CCN(c2ncnc3[nH]ccc23)CC1 (stereo partly drawn) [XF050-30, 4-amino-N-((1S)-1-(4-chlorophenyl)-3-(4-(3-(2-(2-((2-(2,6-dioxopiperidin-3-yl)-1,3-dioxoisoindolin-4-yl)amino)ethoxy)ethoxy)propanoyl)piperazin-1-yl)propyl)-1-(7H-pyrrolo[2,3-d]pyrimidin-4-yl)piperidine-4-carboxamide] | effective in suppressing both AKT protein level and AKT activity |
| Cc1ncsc1-c1ccc(CNC(=O)[C@@H]2C[C@@H](O)CN2C(=O)[C@@H](NC(=O)COCCOCC(=O)N2CCN(CC[C@H](NC(=O)C3(N)CCN(c4ncnc5[nH]ccc45)CC3)c3ccc(Cl)cc3)CC2)C(C)(C)C)cc1 [XF050-7, 4-amino-N-((S)-1-(4-chlorophenyl)-3-(4-(2-(2-(2-(((S)-1-((2S,4R)-4-hydroxy-2-((4-(4-methylthiazol-5-yl)benzyl)carbamoyl)pyrrolidin-1-yl)-3,3-dimethyl-1-oxobutan-2-yl)amino)-2-oxoethoxy)ethoxy)acetyl)piperazin-1-yl)propyl)-1-(7H-pyrrolo[2,3-d]pyrimidin-4-yl)piperidine-4-carboxamide] | effective in suppressing both AKT protein level and AKT activity |
| C[C@@H]1C[C@@H](O)c2ncnc(N3CCN(C(=O)[C@H](CNCCC(=O)NCCOCCOCCOCCNc4cccc5c4C(=O)N(C4CCC(=O)NC4=O)C5=O)c4ccc(Cl)cc4)CC3)c21 (stereo partly drawn) [XF048-8, 3-(((S)-2-(4-chlorophenyl)-3-(4-((5R,7R)-7-hydroxy-5-methyl-6,7-dihydro-5H-cyclopenta[d]pyrimidin-4-yl)piperazin-1-yl)-3-oxopropyl)amino)-N-(2-(2-(2-(2-((2-(2,6-dioxopiperidin-3-yl)-1,3-dioxoisoindolin-4-yl)amino)ethoxy)ethoxy)ethoxy)ethyl)propanamide] | effective in suppressing both AKT protein level and AKT activity |
| Cc1ncsc1-c1ccc(CNC(=O)[C@@H]2C[C@@H](O)CN2C(=O)[C@@H](NC(=O)CCCCCCCCCCCCC(=O)N2CCN(CC[C@H](NC(=O)C3(N)CCN(c4ncnc5[nH]ccc45)CC3)c3ccc(Cl)cc3)CC2)C(C)(C)C)cc1 [XF050-145, 4-amino-N-((S)-1-(4-chlorophenyl)-3-(4-(14-(((S)-1-((2S,4R)-4-hydroxy-2-((4-(4-methylthiazol-5-yl)benzyl)carbamoyl)pyrrolidin-1-yl)-3,3-dimethyl-1-oxobutan-2-yl)amino)-14-oxotetradecanoyl)piperazin-1-yl)propyl)-1-(7H-pyrrolo[2,3-d]pyrimidin-4-yl)piperidine-4-carboxamide] | effective in suppressing both AKT protein level and AKT activity |
| NC1(C(=O)N[C@@H](CCN2CCN(C(=O)CCOCCOCCOCCOCCOCCOc3cccc4c3C(=O)N(C3CCC(=O)NC3=O)C4=O)CC2)c2ccc(Cl)cc2)CCN(c2ncnc3[nH]ccc23)CC1 (stereo partly drawn) [XF056-37, 4-amino-N-((1S)-1-(4-chlorophenyl)-3-(4-(1-((2-(2,6-dioxopiperidin-3-yl)-1,3-dioxoisoindolin-4-yl)oxy)-3,6,9,12,15-pentaoxaoctadecan-18-oyl)piperazin-1-yl)propyl)-1-(7H-pyrrolo[2,3-d]pyrimidin-4-yl)piperidine-4-carboxamide] | effective in suppressing both AKT protein level and AKT activity |
| NC1(C(=O)N[C@@H](CCN2CCN(C(=O)CCOCCOCCOCCOCCNc3cccc4c3C(=O)N(C3CCC(=O)NC3=O)C4=O)CC2)c2ccc(Cl)cc2)CCN(c2ncnc3[nH]ccc23)CC1 (stereo partly drawn) [XF050-32, 4-amino-N-((1S)-1-(4-chlorophenyl)-3-(4-(1-((2-(2,6-dioxopiperidin-3-yl)-1,3-dioxoisoindolin-4-yl)amino)-3,6,9,12-tetraoxapentadecan-15-oyl)piperazin-1-yl)propyl)-1-(7H-pyrrolo[2,3-d]pyrimidin-4-yl)piperidine-4-carboxamide] | effective in suppressing both AKT protein level and AKT activity |
| C[C@@H]1C[C@@H](O)c2ncnc(N3CCN(C(=O)[C@H](CNCCNC(=O)CCOCCOCCNc4cccc5c4C(=O)N(C4CCC(=O)NC4=O)C5=O)c4ccc(Cl)cc4)CC3)c21 (stereo partly drawn) [XF048-1, N-(2-(((N)-2-(4-chlorophenyl)-3-(4-((5R,7R)-7-hydroxy-5-methyl-6,7-dihydro-5H-cyclopenta[d]pyrimidin-4-yl)piperazin-1-yl)-3-oxopropyl)amino)ethyl)-3-(2-(2-((2-(2,6-dioxopiperidin-3-yl)-1,3-dioxoisoindolin-4-yl)amino)ethoxy)ethoxy) propanamide] | effective in suppressing both AKT protein level and AKT activity |
